The values that follow come from patent US8188303B2, “Anti-malarial compound isolated from Gomphostema niveum” (The Director General, Defence Research and Development …, priority 2005, dated 2012).

Molecules are shown by their SMILES. In brackets after ≈: the same amount, converted by molar mass.

For orientation: IC50 means the concentration needed to halve the response being measured. By IC90 is commonly meant the point of the concentration-response curve where the effect stands at 90%.

Assay [1] deals with P. berghi. As to the kind of experiment: In-vivo anti-malarial activity. Also noted: species or system Plasmodium berghi. The note with it: result in words.
In assay [2] the test system is P. falciparum. As to the kind of experiment: In-vitro evaluation of anti-malarial activity (schizont maturation inhibition). In kind it is cell-based, Plasmodium falciparum. How it is done: Two strains of chloroquine sensitive strain and one strain of P. falciparum isolated from patients from Jagadalpur region of India and maintained in vitro. The cultures are maintained as per the standard culture procedures.
The parasites are growth in O +ve human RBCs with the addition of RPMI 1640 culture media with 10% Human serum as supplement. The cells are incubated at 37° C. at 5% CO2 atmosphere and the parasitemia is checked after 24 hrs and media changed. When parasitemia exceeded 10% parasitized cells the culture is subcultured with the addition of fresh RBC. The parasite growth is synchronized by the sorbitol lysis method and synchronized ring stage parasites are used for testing. The in-vitro testing is done in 100 μI complete media per well with the addition of 10 μI of erythrocytes with 2% of ring stages of parasites. All the tests are run in duplicates with in 96 well flat bottomed tissue culture plate and double dilutions are made for each of the test compound with individual control wells only with the RPMI 1640 and human serum supplement. The growth of the parasites in the presence of each of the test compound, chloroquine and control wells are monitored by the examination of the giemsa stained blood smears made after 24 hrs of incubation. The counting is done for the presence of mature schizsonts among 200 asexual parasites and the average schizont maturation inhibition is calculated by the formula (1−Nt/Nc)×100 where in Nt and Nc represent the number of schizont present in the test and control respectively. The IC 50 and IC 90 values are calculated by using the commercial statistical package Sigmastat.
As controls IC50 chloroquine and artether were also determined.

Where [3] appears, read: schizont maturation inhibition, synchronized ring stage parasites in human RBCs, 24 hrs incubation.

Take `CC1=CC(=O)CC2C1(C)CCC(CO)C2(C)CCC1=CCOC1=O` (stereo not drawn) [Gomphostenin, 3-[2-(2-Hydroxymethyl-1,4a,5-trimethyl-7-oxo-1,2,3,4,4a,7 8,8a-octahydronaphthalen-1-yl)-ethyl]-5H-furan-2-one]: the “inhibitory activity against P. berghi in-vivo” value in assay [1] was “significant inhibitory activity”. Moreover, the “inhibitory activity against P. falciparum in-vitro” value in assay [2] (in-vitro, result in words) is reported as “significant inhibitory activity”. In assay [2] (setting [3]), this compound registered a 50% inhibitory concentration (IC50) of 8.23 µg/mL (≈ 24.8 µM) and a concentration for an effect of 90% (IC90) of 24.29 µg/mL (≈ 73.1 µM).

In assay [2] (Plasmodium falciparum, 24 h), `CCN(CC)CCCC(C)Nc1ccnc2cc(Cl)ccc12` (stereo not drawn) [Chloroquine, reference compound] came in with an IC50 of 12.9 µg/mL (≈ 40.2 µM) and an IC90 of 23.7 µg/mL (≈ 74.1 µM).
